Experiments:
Format in all cases: in vivo
[1] = test system: barley net blotch fungus (Pyrenophora teres); experiment: Test Example 1: barley net blotch preventive foliar spray test; details: 500 ppm sprayed on barley (MIKAMO GOLDEN) stems and leaves; spores inoculated after 2 days; 3 days high humidity then 7 days in greenhouse
From the text: (§1) Each of plastic pots was filled with soil and barley (cultivar: MIKAMO GOLDEN) was sowed and grown in a greenhouse for 7 days. Then, each water dilution prepared by adjusting so as to contain a predetermined concentration (500 ppm) of the present compound 1 was sprayed over stems and leaves of the barley so that it sufficiently adhered to the surface of the leaves of the barley. After spraying, the plant was air-dried. After 2 days, an aqueous suspension containing spores of barley net blotch fungus (Pyrenophora teres) was sprayed to inoculate the spores. After completion of the inoculation, the plant was placed for 3 days in a greenhouse at 23° C. in the daytime and 20° C. at night under high humidity condition and cultivated in a greenhouse for 7 days, and then the area of lesion was investigated. As a result, the area of lesion on the plant treated with of the present compound was 30% or less of that on an untreated plant.

[2] = test system: kidney bean stem rot fungus (Sclerotinia sclerotiorum); experiment: Test Example 2: kidney bean stem rot foliar spray test; details: 500 ppm sprayed on kidney bean (NAGAUZURA SAITOU); hyphae-containing PDA medium placed on leaves after air-drying; assessed four days after inoculation
From the text: Each of plastic pots was filled with soil and kidney bean (cultivar: NAGAUZURA SAITOU) was sowed and grown in a greenhouse for 8 days. Then, each water dilution prepared by adjusting so as to contain a predetermined concentration (500 ppm) of the present compound 1 was sprayed over stems and leaves of the kidney bean so that it sufficiently adhered to the surface of the leaves of the kidney bean. After spraying, the plant was air-dried and a PDA medium containing hyphae of the kidney bean stem rot fungus (Sclerotinia sclerotiorum) was placed on the leaves of the kidney bean. After the inoculation, all kidney beans were placed under high humidity condition only at night. Four days after the inoculation, the area of lesion was investigated. As a result, the area of lesion on the plant treated with the present compound was 30% or less of that on an untreated plant.

[3] = test system: wheat leaf blotch fungus (Septoria tritici); experiment: Test Example 3: wheat leaf blotch preventive foliar spray test; details: 500 ppm sprayed on wheat (APOGEE); spores inoculated after 4 days; 3 days at 18° C. high humidity then 14 to 18 days under illumination
From the text: Each of plastic pots was filled with soil and wheat (cultivar: APOGEE) was sowed and grown in a greenhouse for 10 days. Then, each water dilution prepared by adjusting so as to contain a predetermined concentration (500 ppm) of the present compound 1 was sprayed over stems and leaves of the wheat so that it sufficiently adhered to the surface of the leaves of the wheat. After spraying, the plant was air-dried. After 4 days, an aqueous suspension containing spores of wheat leaf blotch fungus (Septoria tritici) was sprayed over the wheat to inoculate the spores. After completion of the inoculation, the plant was placed at 18° C. under high humidity condition for 3 days and then placed under illumination for 14 to 18 days, and then the area of lesion was investigated. As a result, the area of lesion on the plant treated with the present compound was 30% or less of that on an untreated plant.

[4] = test system: cucumber powdery mildew fungus (Sphaerotheca fuliginea, a QoI-resistant strain); experiment: Test Example 4: cucumber powdery mildew (QoI-resistant strain) foliar spray test; details: 500 ppm sprayed on cucumber (SAGAMI HANJIRO), cytochrome b position 143 glycine to alanine, assessed after 8 days
From the text: Each of plastic pots was filled with soil and cucumber (cultivar: SAGAMI HANJIRO) was sowed and grown in a greenhouse for 12 days. Then, each water dilution prepared by adjusting so as to contain a predetermined concentration (500 ppm) of the present compound 1 was sprayed over stems and leaves of the cucumber so that it sufficiently adhered to the surface of the leaves of the cucumber. After spraying, the plant was air-dried and then inoculated by sprinkling with spores of cucumber powdery mildew fungus (Sphaerotheca fuliginea, a QoI-resistant strain in which, among the genes encoding cytochrome b, the amino acid residue at position 143 of cytochrome b is mutated from glycine to alanine). After the inoculation, the plant was cultivated in a greenhouse at 24° C. in the daytime and 20° C. at night for 8 days, and then the area of lesion was investigated. As a result, the area of lesion on the plant treated with the present compound was 30% or less of that on an untreated plant.

[5] = test system: wheat rust fungus (Puccinia recondita); experiment: Test Example 5: wheat rust preventive foliar spray test; details: 200 ppm sprayed on wheat (SHIROGANE); spores inoculated after 5 days; one day dark high humidity then 8 days under illumination
Protocol: Each of plastic pots was filled with soil and wheat (cultivar: SHIROGANE) was sowed and grown in a greenhouse for 9 days. Then, each water dilution prepared by adjusting so as to contain a predetermined concentration (200 ppm) of the present compound 1 was sprayed over stems and leaves of the wheat so that it sufficiently adhered to the surface of the leaves of the wheat. After spraying, the plant was air-dried and cultivated at 20° C. for 5 days under illumination, and then inoculated by sprinkling with spores of wheat rust fungus (Puccinia recondita). After the inoculation, the plant was placed at 23° C. for one day under dark and high humidity condition, and cultivated under illumination at 20° C. for 8 days, and then the area of lesion was investigated. As a result, the area of lesion on the plant treated with the present compound was 30% or less of that on an untreated plant.

[6] = test system: barley scald fungus (Rhynchosporium secalis); experiment: Test Example 6: barley scald preventive foliar spray test; details: 200 ppm sprayed on barley (MIKAMO GOLDEN); spores inoculated after 2 days; 3 days high humidity then 7 days in greenhouse
From the text: as §1, with “(200” for “(500”, “scald” for “net blotch”, “(Rhynchosporium secalis)” for “(Pyrenophora teres)”

[7] = test system: cucumber anthracnose fungus (Colletotrichum lagenarium); experiment: Test Example 7: cucumber anthracnose preventive foliar spray test; details: 50 ppm sprayed on cucumber (SAGAMI HANJIRO); spores inoculated after 1 day; one day high humidity then 6 days in greenhouse
From the text: (§2) Each of plastic pots was filled with soil and cucumber (cultivar: SAGAMI HANJIRO) was sowed and grown in a greenhouse for 19 days. Then, each water dilution prepared by adjusting so as to contain a predetermined concentration (50 ppm) of the present compound 1 was sprayed over stems and leaves of the cucumber so that it sufficiently adhered to the surface of the leaves of the cucumber. After spraying, the plant was air-dried and then, after 1 day, an aqueous suspension containing spores of cucumber anthracnose fungus (Colletotrichum lagenarium) was sprayed to inoculate the spores. After the inoculation, the plant was placed at 23° C. for one day under high humidity condition, and then cultivated in a greenhouse at 24° C. in the daytime and 20° C. at night for 6 days, and then the area of lesion was investigated. As a result, the area of lesion on the plant treated with the present compound was 30% or less of that on an untreated plant.

[8] = test system: cucumber downy mildew fungus (Pseudoperonospora cubensis); experiment: Test Example 8: cucumber downy mildew preventive foliar spray test; details: 200 ppm sprayed on cucumber (SAGAMI HANJIRO); zoospores inoculated after 1 day; one day high humidity then 6 days in greenhouse
From the text: as §2, with “(200” for “(50”, “zoospores” for “spores”, “downy mildew” for “anthracnose”, “(Pseudoperonospora cubensis)” for “(Colletotrichum lagenarium)”, “zoospores.” for “spores.”, “placed stand” for “placed”

Measured: area of lesion on the treated plant relative to that on an untreated plant

Cc1cccc(-n2nnn(C)c2=O)c1CSc1ccn(-c2ccc(Cl)cc2)n1 [present compound 1, 1-(2-{[1-(4-chlorophenyl)-1H-pyrazol-3-yl]thiomethyl}-3-methy1phenyl)-4-methyl-1,4-dihydrotetrazol-5-one]
≤ 30%: all assays above

Reference: patent publication US10070646B2, “Tetrazolinone compound and application thereof” (SUMITOMO CHEMICAL COMPANY, LIMITED, priority 2014, dated 2018)
